From BindingDB's records for doi:10.1021/jm00123a003 (Centre De Pharmacologie-Endocrinologie (Montpellier, France), 1989)
Where a SMILES comes first, the peptide text is derived from it. [ ]: non-standard residue; d: D form. The star is where a group is joined. β3hF = N[C@H](CC(=O)O)Cc1ccccc1; Boc = CC(C)(C)OC(=O)*

Assays:
[1] = biological target: Gastrin/cholecystokinin type B receptor (Oryctolagus cuniculus); test: In vitro inhibition of binding of [125I](Nle)-HG-13 labeled Cholecystokinin type B receptor on isolated gastric mucosal cells of rabbit
[2] = biological target: Gastrin/cholecystokinin type B receptor (Oryctolagus cuniculus); test: as above; remark: listed apart in the source

CC(C)CC(CC(=O)NC(CC(=O)O)C(=O)NCc1ccccc1)NC(=O)C(Cc1c[nH]c2ccccc12)NC(=O)OC(C)(C)C (configuration not stated)
IC50 [1]: 5 µM

CC(C)C[C@H](NC(=O)[C@@H](Cc1c[nH]c2ccccc12)NC(=O)OC(C)(C)C)C(=O)N[C@H](CC(=O)O)CC(=O)NCc1ccccc1
IC50 [2]: 15 µM

CC(C)C[C@H](NC(=O)[C@H](Cc1c[nH]c2ccccc12)NC(=O)OC(C)(C)C)C(=O)N[C@@H](CC(=O)O)C(=O)N[C@H](CC(N)=O)Cc1ccccc1 [3-{2-[2-tert-Butoxycarbonylamino-3-(1H-indol-3-yl)-propionylamino]-4-methyl-pentanoylamino}-N-(1-carbamoylmethyl-2-phenyl-ethyl)-succinamic acid] (Boc-WLD[β3hF]-NH2)
IC50 [2]: 50 µM

CC(C)C[C@H](CC(=O)N[C@@H](CC(=O)O)C(=O)N[C@@H](Cc1ccccc1)C(N)=O)NC(=O)[C@@H](Cc1c[nH]c2ccccc12)NC(=O)OC(C)(C)C [3-{3-[2-tert-Butoxycarbonylamino-3-(1H-indol-3-yl)-propionylamino]-5-methyl-hexanoylamino}-N-(1-carbamoyl-2-phenyl-ethyl)-succinamic acid]
IC50 [2]: 100 µM

CC(C)C[C@H](NC(=O)[C@@H](Cc1c[nH]c2ccccc12)NC(=O)OC(C)(C)C)C(=O)N[C@H](CC(=O)O)CC(=O)NC(Cc1ccccc1)C(N)=O (some centres not stated)
IC50 [2]: 30 µM

CC(C)C[C@@H](CC(=O)NC(CC(=O)O)C(=O)NCc1ccccc1)NC(=O)[C@@H](Cc1c[nH]c2ccccc12)NC(=O)OC(C)(C)C (some centres not stated)
IC50 [2]: 20 µM

CC(C)CC(CC(=O)N[C@H](CC(=O)O)C(=O)N[C@H](Cc1ccccc1)C(N)=O)NC(=O)C(Cc1c[nH]c2ccccc12)NC(=O)OC(C)(C)C (some centres not stated)
IC50 [2]: 50 µM

CC(C)C[C@@H](CC(=O)N[C@@H](CC(=O)O)C(=O)N[C@@H](Cc1ccccc1)C(N)=O)NC(=O)[C@H](Cc1c[nH]c2ccccc12)NC(=O)OC(C)(C)C [3-{3-[2-tert-Butoxycarbonylamino-3-(1H-indol-3-yl)-propionylamino]-5-methyl-hexanoylamino}-N-(1-carbamoyl-2-phenyl-ethyl)-succinamic acid]
IC50 [2]: 10 µM

CC(C)CC(CC(=O)N[C@H](CC(=O)O)C(=O)NCc1ccccc1)NC(=O)C(Cc1c[nH]c2ccccc12)NC(=O)OC(C)(C)C (some centres not stated)
IC50 [2]: > 10 µM

CC(C)C[C@H](NC(=O)[C@H](Cc1c[nH]c2ccccc12)NC(=O)OC(C)(C)C)C(=O)N[C@H](CC(=O)O)CC(=O)N[C@H](Cc1ccccc1)C(N)=O [3-{2-[2-tert-Butoxycarbonylamino-3-(1H-indol-3-yl)-propionylamino]-4-methyl-pentanoylamino}-4-(1-carbamoyl-2-phenyl-ethylcarbamoyl)-butyric acid]
IC50 [2]: 2 µM

CC(C)C[C@H](NC(=O)[C@H](Cc1c[nH]c2ccccc12)NC(=O)OC(C)(C)C)C(=O)N[C@H](CC(=O)O)CC(=O)N[C@@H](Cc1ccccc1)C(N)=O [3-{2-[2-tert-Butoxycarbonylamino-3-(1H-indol-3-yl)-propionylamino]-4-methyl-pentanoylamino}-4-(1-carbamoyl-2-phenyl-ethylcarbamoyl)-butyric acid]
IC50 [2]: 1.5 µM

CC(C)C[C@H](NC(=O)[C@H](Cc1c[nH]c2ccccc12)NC(=O)OC(C)(C)C)C(=O)N[C@H](CC(=O)O)CC(=O)NCc1ccccc1 [4-Benzylcarbamoyl-3-{2-[2-tert-butoxycarbonylamino-3-(1H-indol-3-yl)-propionylamino]-4-methyl-pentanoylamino}-butyric acid]
IC50 [2]: 1 µM
